From paper PMC6422671 (British Journal of Clinical Pharmacology, 2019)

Test: Clinical laboratory findings: haematology; data mean (standard deviation)
Type: in vivo, healthy men
Source text: Data are mean (standard deviation).

In the case of C[C@@H](N)c1cc(Cl)ccc1Cn1c(=S)[nH]c(=O)c2[nH]ccc21 [AZD4831], the Basophils (45 mg fed, 24 h) is reported as 0.03 (0.01) 10^9 L^–1, the Eosinophils (45 mg fed, 24 h) is reported as 0.19 (0.10) 10^9 L^–1 and the “Erythrocyte MCH” value (45 mg fed, 24 h) is reported as 30.2 (2.0) pg. The “Erythrocyte MCH concentration” value (45 mg fed, 24 h) was 343 (14) g L^–1, the “Erythrocyte MCV” value (45 mg fed, 24 h) was 88.0 (5.6) fL and the Erythrocytes (45 mg fed, 24 h) was 4.74 (0.15) 10^12 L^–1. For the same molecule, the Haematocrit (45 mg fed, 24 h) was 0.42 (0.03) ratio, the Haemoglobin (45 mg fed, 24 h) was 143 (9) g L^–1 and the Leukocytes (45 mg fed, 24 h) was 5.51 (0.85) 10^9 L^–1. The Lymphocytes (45 mg fed, 24 h) was 1.76 (0.61) 10^9 L^–1, the Monocytes (45 mg fed, 24 h) was 0.34 (0.16) 10^9 L^–1 and the Neutrophils (45 mg fed, 24 h) was 3.11 (0.79) 10^9 L^–1. For the same molecule, the Platelets (45 mg fed, 24 h) was 227 (50) 10^9 L^–1, the Reticulocytes (45 mg fed, 24 h) was 77.4 (5.4) 10^9 L^–1 and the Basophils (45 mg fed, 48 h) was 0.03 (0.02) 10^9 L^–1. For the same molecule, the Eosinophils (45 mg fed, 48 h) was 0.20 (0.15) 10^9 L^–1, the “Erythrocyte MCH” value (45 mg fed, 48 h) was 30.2 (1.7) pg and the “Erythrocyte MCH concentration” value (45 mg fed, 48 h) was 343 (8) g L^–1. For the same molecule, the “Erythrocyte MCV” value (45 mg fed, 48 h) was 88.2 (5.8) fL, the Erythrocytes (45 mg fed, 48 h) was 4.89 (0.11) 10^12 L^–1 and the Haematocrit (45 mg fed, 48 h) was 0.43 (0.03) ratio. The Haemoglobin (45 mg fed, 48 h) was 148 (9) g L^–1, the Leukocytes (45 mg fed, 48 h) was 5.93 (1.07) 10^9 L^–1 and the Lymphocytes (45 mg fed, 48 h) was 1.85 (0.77) 10^9 L^–1. The Monocytes (45 mg fed, 48 h) was 0.40 (0.16) 10^9 L^–1, the Neutrophils (45 mg fed, 48 h) was 3.35 (1.20) 10^9 L^–1 and the Platelets (45 mg fed, 48 h) was 233 (51) 10^9 L^–1. The Reticulocytes (45 mg fed, 48 h) was 84.5 (7.9) 10^9 L^–1, the Basophils (45 mg fed, follow up) was 0.04 (0.01) 10^9 L^–1 and the Eosinophils (45 mg fed, follow up) was 0.18 (0.12) 10^9 L^–1. The “Erythrocyte MCH” value (45 mg fed, follow up) was 30.7 (1.0) pg, the “Erythrocyte MCH concentration” value (45 mg fed, follow up) was 347 (11) g L^–1 and the “Erythrocyte MCV” value (45 mg fed, follow up) was 88.3 (5.1) fL. The Erythrocytes (45 mg fed, follow up) was 4.72 (0.16) 10^12 L^–1, the Haematocrit (45 mg fed, follow up) was 0.42 (0.04) ratio and the Haemoglobin (45 mg fed, follow up) was 145 (9) g L^–1. The Leukocytes (45 mg fed, follow up) was 6.37 (1.60) 10^9 L^–1, the Lymphocytes (45 mg fed, follow up) was 1.79 (0.37) 10^9 L^–1 and the Monocytes (45 mg fed, follow up) was 0.39 (0.12) 10^9 L^–1. The Neutrophils (45 mg fed, follow up) was 3.85 (1.22) 10^9 L^–1, the Platelets (45 mg fed, follow up) was 250 (62) 10^9 L^–1 and the Reticulocytes (45 mg fed, follow up) was 82.9 (10.8) 10^9 L^–1. For the same molecule, the Basophils (135 mg fasted, 24 h) was 0.02 (0.01) 10^9 L^–1, the Eosinophils (135 mg fasted, 24 h) was 0.11 (0.07) 10^9 L^–1 and the “Erythrocyte MCH” value (135 mg fasted, 24 h) was 31.0 (0.4) pg. For the same molecule, the “Erythrocyte MCH concentration” value (135 mg fasted, 24 h) was 354 (5) g L^–1, the “Erythrocyte MCV” value (135 mg fasted, 24 h) was 87.5 (1.9) fL and the Erythrocytes (135 mg fasted, 24 h) was 4.69 (0.26) 10^12 L^–1. For the same molecule, the Haematocrit (135 mg fasted, 24 h) was 0.41 (0.02) ratio, the Haemoglobin (135 mg fasted, 24 h) was 145 (8) g L^–1 and the Leukocytes (135 mg fasted, 24 h) was 5.11 (1.13) 10^9 L^–1. The Lymphocytes (135 mg fasted, 24 h) was 1.52 (0.40) 10^9 L^–1, the Monocytes (135 mg fasted, 24 h) was 0.35 (0.12) 10^9 L^–1 and the Neutrophils (135 mg fasted, 24 h) was 3.00 (0.79) 10^9 L^–1. The Platelets (135 mg fasted, 24 h) was 200 (25) 10^9 L^–1, the Reticulocytes (135 mg fasted, 24 h) was 72.4 (19.9) 10^9 L^–1 and the Basophils (135 mg fasted, 48 h) was 0.03 (0.01) 10^9 L^–1. For the same molecule, the Eosinophils (135 mg fasted, 48 h) was 0.12 (0.07) 10^9 L^–1, the “Erythrocyte MCH” value (135 mg fasted, 48 h) was 30.9 (0.4) pg and the “Erythrocyte MCH concentration” value (135 mg fasted, 48 h) was 353 (7) g L^–1. For the same molecule, the “Erythrocyte MCV” value (135 mg fasted, 48 h) was 87.4 (1.6) fL, the Erythrocytes (135 mg fasted, 48 h) was 4.68 (0.30) 10^12 L^–1 and the Haematocrit (135 mg fasted, 48 h) was 0.41 (0.03) ratio. The Haemoglobin (135 mg fasted, 48 h) was 144 (9) g L^–1, the Leukocytes (135 mg fasted, 48 h) was 5.28 (1.23) 10^9 L^–1 and the Lymphocytes (135 mg fasted, 48 h) was 1.66 (0.47) 10^9 L^–1. The Monocytes (135 mg fasted, 48 h) was 0.37 (0.11) 10^9 L^–1, the Neutrophils (135 mg fasted, 48 h) was 3.00 (0.83) 10^9 L^–1 and the Platelets (135 mg fasted, 48 h) was 202 (29) 10^9 L^–1. For the same molecule, the Reticulocytes (135 mg fasted, 48 h) was 70.1 (15.1) 10^9 L^–1, the Basophils (135 mg fasted, follow up) was 0.03 (0.01) 10^9 L^–1 and the Eosinophils (135 mg fasted, follow up) was 0.14 (0.09) 10^9 L^–1. For the same molecule, the “Erythrocyte MCH” value (135 mg fasted, follow up) was 30.8 (0.5) pg, the “Erythrocyte MCH concentration” value (135 mg fasted, follow up) was 350 (11) g L^–1 and the “Erythrocyte MCV” value (135 mg fasted, follow up) was 88.2 (1.7) fL. The Erythrocytes (135 mg fasted, follow up) was 4.62 (0.25) 10^12 L^–1, the Haematocrit (135 mg fasted, follow up) was 0.41 (0.02) ratio and the Haemoglobin (135 mg fasted, follow up) was 143 (9) g L^–1. The Leukocytes (135 mg fasted, follow up) was 6.80 (3.32) 10^9 L^–1, the Lymphocytes (135 mg fasted, follow up) was 1.51 (0.26) 10^9 L^–1 and the Monocytes (135 mg fasted, follow up) was 0.48 (0.32) 10^9 L^–1. The Neutrophils (135 mg fasted, follow up) was 4.46 (2.99) 10^9 L^–1, the Platelets (135 mg fasted, follow up) was 218 (24) 10^9 L^–1 and the Reticulocytes (135 mg fasted, follow up) was 82.8 (19.3) 10^9 L^–1. The Basophils (405 mg fasted, 24 h) was 0.04 (0.01) 10^9 L^–1, the Eosinophils (405 mg fasted, 24 h) was 0.18 (0.15) 10^9 L^–1 and the “Erythrocyte MCH” value (405 mg fasted, 24 h) was 30.8 (1.5) pg. For the same molecule, the “Erythrocyte MCH concentration” value (405 mg fasted, 24 h) was 345 (8) g L^–1, the “Erythrocyte MCV” value (405 mg fasted, 24 h) was 89.4 (3.8) fL and the Erythrocytes (405 mg fasted, 24 h) was 4.81 (0.31) 10^12 L^–1. The Haematocrit (405 mg fasted, 24 h) was 0.43 (0.01) ratio, the Haemoglobin (405 mg fasted, 24 h) was 148 (6) g L^–1 and the Leukocytes (405 mg fasted, 24 h) was 5.53 (1.12) 10^9 L^–1. The Lymphocytes (405 mg fasted, 24 h) was 1.40 (0.19) 10^9 L^–1, the Monocytes (405 mg fasted, 24 h) was 0.34 (0.09) 10^9 L^–1 and the Neutrophils (405 mg fasted, 24 h) was 3.47 (0.79) 10^9 L^–1. The Platelets (405 mg fasted, 24 h) was 190 (23) 10^9 L^–1, the Reticulocytes (405 mg fasted, 24 h) was 68.5 (16.4) 10^9 L^–1 and the Basophils (405 mg fasted, 48 h) was 0.03 (0.01) 10^9 L^–1. The Eosinophils (405 mg fasted, 48 h) was 0.24 (0.26) 10^9 L^–1, the “Erythrocyte MCH” value (405 mg fasted, 48 h) was 31.0 (1.6) pg and the “Erythrocyte MCH concentration” value (405 mg fasted, 48 h) was 347 (7) g L^–1. The “Erythrocyte MCV” value (405 mg fasted, 48 h) was 89.4 (3.7) fL, the Erythrocytes (405 mg fasted, 48 h) was 4.67 (0.22) 10^12 L^–1 and the Haematocrit (405 mg fasted, 48 h) was 0.42 (0.01) ratio. The Haemoglobin (405 mg fasted, 48 h) was 145 (5) g L^–1, the Leukocytes (405 mg fasted, 48 h) was 5.53 (1.14) 10^9 L^–1 and the Lymphocytes (405 mg fasted, 48 h) was 1.51 (0.30) 10^9 L^–1. The Monocytes (405 mg fasted, 48 h) was 0.40 (0.14) 10^9 L^–1, the Neutrophils (405 mg fasted, 48 h) was 3.22 (0.62) 10^9 L^–1 and the Platelets (405 mg fasted, 48 h) was 187 (20) 10^9 L^–1. For the same molecule, the Reticulocytes (405 mg fasted, 48 h) was 66.3 (20.0) 10^9 L^–1, the Basophils (405 mg fasted, follow up) was 0.04 (0.01) 10^9 L^–1 and the Eosinophils (405 mg fasted, follow up) was 0.27 (0.27) 10^9 L^–1. The “Erythrocyte MCH” value (405 mg fasted, follow up) was 31.0 (1.1) pg, the “Erythrocyte MCH concentration” value (405 mg fasted, follow up) was 345 (5) g L^–1 and the “Erythrocyte MCV” value (405 mg fasted, follow up) was 89.8 (3.6) fL. For the same molecule, the Erythrocytes (405 mg fasted, follow up) was 4.83 (0.35) 10^12 L^–1, the Haematocrit (405 mg fasted, follow up) was 0.43 (0.02) ratio and the Haemoglobin (405 mg fasted, follow up) was 149 (8) g L^–1. The Leukocytes (405 mg fasted, follow up) was 5.84 (1.41) 10^9 L^–1, the Lymphocytes (405 mg fasted, follow up) was 1.43 (0.19) 10^9 L^–1 and the Monocytes (405 mg fasted, follow up) was 0.40 (0.08) 10^9 L^–1. For the same molecule, the Neutrophils (405 mg fasted, follow up) was 3.54 (1.02) 10^9 L^–1, the Platelets (405 mg fasted, follow up) was 205 (21) 10^9 L^–1 and the Reticulocytes (405 mg fasted, follow up) was 78.6 (19.4) 10^9 L^–1.
